Assay results reported in US6677277B1, “Substituted sulphonyl amino(thio)carbonyl compounds and their use as herbicides” (Bayer Aktiengesellschaft, priority 1996, dated 2004).

Key:
Format in all cases: in vivo
[1] = system: weeds; assay: Pre-emergence test; conditions: cf. Tables A-1 to A-5
Experimental: (§1) Pre-emergence Test Solvent: 5 parts by weight of acetone Emulsifier: 1 part by weight of alkylaryl polyglycol ether To produce a suitable preparation of active compound, 1 part by weight of active compound is mixed with the stated amount of solvent, the stated amount of emulsifier is added and the concentrate is diluted with water to the desired concentration. Seeds of the test plants are sown in normal soil. After about 24 hours, the soil is sprayed with the preparation of the active compound in such a way as to apply the particular amounts of active compound desired per unit area The concentration of the spray liquor is chosen so that the particular amounts of active compound desired are applied in 1000 l of water/ha. After three weeks, the degree of damage to the plants is rated in % damage in comparison to the development of the untreated control. The figures denote: [table]

[2] = system: Maize; assay: Pre-emergence test/greenhouse; conditions: after three weeks
Experimental: as §1

[3] = system: Chenopodium; assay: Pre-emergence test/greenhouse; conditions: after three weeks
Experimental: as §1

[4] = system: Alopecurus; assay: Pre-emergence test/greenhouse; conditions: after three weeks
Experimental: as §1

[5] = system: Lolium; assay: Pre-emergence test/greenhouse; conditions: after three weeks
Experimental: as §1

[6] = system: Solanum; assay: Pre-emergence test/greenhouse; conditions: after three weeks
Experimental: as §1

[7] = system: Amaranthus; assay: Pre-emergence test/greenhouse; conditions: after three weeks
Experimental: as §1

[8] = system: Sorghum; assay: Pre-emergence test/greenhouse; conditions: after three weeks
Experimental: as §1

[9] = system: Ipomoea; assay: Post-emergence test/greenhouse; conditions: for Ipomoea, % damage: rated after three weeks vs untreated control
Experimental: as §1, with “Post-emergence” for “Pre-emergence”, “Test plants which have a height” for “Seeds”, “5-15 cm” for “the test plants”, “are” for “are sown in normal soil. After about 24 hours, the soil is”, “area.” for “area”

[10] = system: Xanthium; assay: Post-emergence test/greenhouse; conditions: post-emergence, rated after three weeks vs untreated control
Experimental: as §1, with “Post-emergence” for “Pre-emergence”, “Test plants which have a height” for “Seeds”, “5-15 cm” for “the test plants”, “are” for “are sown in normal soil. After about 24 hours, the soil is”, “area.” for “area”

[11] = system: Wheat; assay: Post-emergence test/greenhouse; conditions: rated after three weeks vs untreated control
Experimental: as §1, with “Post-emergence” for “Pre-emergence”, “Test plants which have a height” for “Seeds”, “5-15 cm” for “the test plants”, “are” for “are sown in normal soil. After about 24 hours, the soil is”, “area.” for “area”

[12] = system: Solanum; assay: Post-emergence test/greenhouse; conditions: post-emergence; for Solanum, % damage: rated after three weeks vs untreated control
Experimental: as §1, with “Post-emergence” for “Pre-emergence”, “Test plants which have a height” for “Seeds”, “5-15 cm” for “the test plants”, “are” for “are sown in normal soil. After about 24 hours, the soil is”, “area.” for “area”

[13] = system: Sorghum; assay: Post-emergence test/greenhouse; conditions: post-emergence; for Sorghum, % damage: rated after three weeks vs untreated control
Experimental: as §1, with “Post-emergence” for “Pre-emergence”, “Test plants which have a height” for “Seeds”, “5-15 cm” for “the test plants”, “are” for “are sown in normal soil. After about 24 hours, the soil is”, “area.” for “area”

[14] = system: Stellaria; assay: Post-emergence test/greenhouse; conditions: for Stellaria, % damage: rated after three weeks vs untreated control
Experimental: as §1, with “Post-emergence” for “Pre-emergence”, “Test plants which have a height” for “Seeds”, “5-15 cm” for “the test plants”, “are” for “are sown in normal soil. After about 24 hours, the soil is”, “area.” for “area”

[15] = system: weeds; assay: Post-emergence test; conditions: cf. Tables B-1 to B-4
Experimental: as §1, with “Post-emergence” for “Pre-emergence”, “Test plants which have a height” for “Seeds”, “5-15 cm” for “the test plants”, “are” for “are sown in normal soil. After about 24 hours, the soil is”, “area.” for “area”

[16] = system: Alopecurus; assay: Post-emergence test/greenhouse; conditions: 60 g ai./ha, after three weeks
Experimental: as §1, with “Post-emergence” for “Pre-emergence”, “Test plants which have a height” for “Seeds”, “5-15 cm” for “the test plants”, “are” for “are sown in normal soil. After about 24 hours, the soil is”, “area.” for “area”

[17] = system: Lolium; assay: Post-emergence test/greenhouse; conditions: 60 g ai./ha, after three weeks
Experimental: as §1, with “Post-emergence” for “Pre-emergence”, “Test plants which have a height” for “Seeds”, “5-15 cm” for “the test plants”, “are” for “are sown in normal soil. After about 24 hours, the soil is”, “area.” for “area”

[18] = system: Matricaria; assay: Pre-emergence test/greenhouse; conditions: 125 g ai./ha, after three weeks
Experimental: as §1

| Compound | activity against weeds [1] | activity against weeds [15] | % damage, Alopecurus ([4]; 125 g ai./ha) | % damage, Lolium ([5]; 125 g ai./ha) | % damage, Amaranthus ([7]; 125 g ai./ha) | % damage, Sorghum ([8]; 125 g ai./ha) | Ipomoea, % damage ([9]; 60 g ai./ha) | Xanthium, % damage ([10]; 60 g ai./ha) | Wheat, % damage ([11]; 60 g ai./ha) | Solanum, % damage ([12]; 60 g ai./ha) | Sorghum, % damage ([13]; 60 g ai./ha) | Stellaria, % damage ([14]; 60 g ai./ha) | other results |
| --- | --- | --- | --- | --- | --- | --- | --- | --- | --- | --- | --- | --- | --- |
| CSc1cccc(C(F)(F)F)c1S(=O)(=O)NC(=O)n1nc(SC)n(C)c1=O [Example 62] | very strong activity | – | – | – | – | – | – | – | – | – | – | – | % damage, Maize ([2]; 60 g ai./ha): 10%; % damage, Chenopodium ([3]; 60 g ai./ha): 100%; % damage, Alopecurus ([4]; 60 g ai./ha): 100%; % damage, Lolium ([5]; 60 g ai./ha): 100%; % damage, Solanum ([6]; 60 g ai./ha): 100%; % damage, Amaranthus ([7]; 60 g ai./ha): 100%; % damage, Sorghum ([8]; 60 g ai./ha): 90% |
| CCSc1cccc(C)c1S(=O)(=O)NC(=O)n1nc(OC)n(C)c1=O [Example 53] | – | very strong activity | – | – | – | – | – | – | – | – | – | – | Ipomoea, % damage ([9]; 125 g ai./ha): 95%; Xanthium, % damage ([10]; 125 g ai./ha): 100%; Wheat, % damage ([11]; 125 g ai./ha): 20%; Solanum, % damage ([12]; 125 g ai./ha): 59%; Sorghum, % damage ([13]; 125 g ai./ha): 95%; Stellaria, % damage ([14]; 125 g ai./ha): 90% |
| COc1cccc(SCCF)c1S(=O)(=O)NC(=O)n1nc(OC)n(C)c1=O [Example 57] | very strong activity | – | 100% | 100% | 100% | 100% | – | – | – | – | – | – | % damage, Chenopodium ([3]; 125 g ai./ha): 100% |
| CCSc1cccc(SCC)c1S(=O)(=O)NC(=O)n1nc(CC)n(C)c1=O [Example 44] | – | very strong activity | – | – | – | – | 95% | 100% | 10% | 95% | 70% | 80% | – |
| CCc1nn(C(=O)NS(=O)(=O)c2c(OC)cccc2SC)c(=O)n1C [Example 22] | very strong activity | very strong activity | 100% | 100% | 100% | 80% | – | – | – | – | – | – | % damage, Ipomoea ([9]; 60 g ai./ha, after three weeks): 80%; % damage, Alopecurus [16]: 90%; % damage, Lolium [17]: 90%; % damage, Solanum ([12]; 60 g ai./ha, after three weeks): 80%; % damage, Sorghum ([13]; 60 g ai./ha, after three weeks): 95%; % damage, Stellaria ([14]; 60 g ai./ha, after three weeks): 90%; % damage, Maize ([2]; 125 g ai./ha): 30%; % damage, Solanum ([6]; 125 g ai./ha): 100%; % damage, Matricaria [18]: 60% |
| CCOc1nn(C(=O)NS(=O)(=O)c2c(SCC)cccc2C(F)(F)F)c(=O)n1C [Example 11] | very strong activity | very strong activity | 100% | 90% | 100% | 100% | 90% | 90% | 0% | 70% | – | 90% | % damage, Maize ([2]; 125 g ai./ha): 10%; % damage, Chenopodium ([3]; 125 g ai./ha): 100%; % damage, Solanum ([6]; 125 g ai./ha): 100%; % damage, Matricaria [18]: 100% |
| CCOc1nn(C(=O)NS(=O)(=O)c2c(C)cccc2SC)c(=O)n1C [Example 48] | – | very strong activity | – | – | – | – | 90% | 95% | 5% | 90% | 100% | 60% | – |
| CCSc1cccc(OC(F)(F)F)c1S(=O)(=O)NC(=O)n1nc(CC)n(C)c1=O [Example 39] | – | very strong activity | – | – | – | – | 80% | 95% | 20% | 95% | 80% | 90% | – |
| CCc1nn(C(=O)NS(=O)(=O)c2c(SC)cccc2C(F)(F)F)c(=O)n1C [Example 63] | very strong activity | – | – | – | – | – | – | – | – | – | – | – | % damage, Maize ([2]; 60 g ai./ha): 0%; % damage, Chenopodium ([3]; 60 g ai./ha): 100%; % damage, Alopecurus ([4]; 60 g ai./ha): 100%; % damage, Lolium ([5]; 60 g ai./ha): 70%; % damage, Solanum ([6]; 60 g ai./ha): 100%; % damage, Amaranthus ([7]; 60 g ai./ha): 100%; % damage, Sorghum ([8]; 60 g ai./ha): 100% |
